Reference: patent US8604016B2, “Heterocyclic inhibitors of glutaminase” (Calithera Biosciences Inc., priority 2011, dated 2013)
Converted amounts (≈) assume the structure as drawn. Where two headings read alike, the source gives them in different places.

Assays:
[1] = system: P493-6 (myc "on") cells; assay: Cell Proliferation Assay (72 hrs, Cell Titer Glo or Viacount FACS); type: cell-based
Protocol: P493-6 (myc “on”) cells were maintained in growth media (RPMI-1640, 10% FBS, 2 mM glutamine, 100 units/ml Penicillin and 100 μg/ml streptomycin) at 37° C. with 5% CO2. For compound assay, P493-6 cells were plated in 96-well V-bottom plates on the day of compound addition in 50 μl of growth media at a cell density of 200,000 cells/ml (10,000 cells/well). Compounds were serially diluted in 100% DMSO at 200-times the final concentration. Compounds were diluted 100-fold into growth media and then 50 μl of this mixture was added to cell plates making the final concentration of DMSO 0.5%. Cells were incubated with compound for 72 hrs at 37° C. with 5% CO2 and analyzed for antiproliferative effects either by Cell Titer Glo (Promega) or FACS analysis using the Viacount (Millipore) kit on the Guava instrument.

[2] = biological target: recombinant form of Glutaminase 1 (GAC) (Homo sapiens, UniProt O94925); assay: Recombinant Enzyme Assay (GAC coupled to GDH, NADH absorbance, no preincubation); type: biochemical; conditions: no preincubation; read-out: GAC Delta N2 IC50 no preinc
Procedure, shortened: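 GAC (4 nM) in Tris-HCl pH 8.0 with 150 mM K2HPO4, EDTA, BSA, DTT, plus 4 units/ml GDH and 4 mM ADP, without preincubation. Absorbance at 340 nm was read kinetically for 15 min at 20° C. Slopes (mAU/min) were compared with DMSO-only and control-compound wells on the same plate.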

[3] = Caco-2 Permeability Assay (bidirectional); type: in vitro ADME; conditions: human
From the text: (§1) Caco-2 cells are commonly used in a confluent monolayer on a cell culture insert filter. When cultured in this format and under specific conditions, the cells become differentiated and polarized such that their phenotype, morphologically and functionally resembles the enterocytes lining the small intestine. The cell monolayer provides a physical and biochemical barrier to the passage of small molecules, and is widely used across the pharmaceutical industry as an in vitro model of the human small intestinal mucosa to predict the absorption of orally administered drugs (Hidalgo et al., Gastroenterology, 1989; Artursson, J. Pharm. Sci., 1990). The correlation between the in vitro apparent permeability (P ? app) across Caco-2 monolayers and the in vivo absorption is well established (Artursson et al., Biochem. Biophys. Res. Comm., 1991).
(§2) The present assay was used to determine the bidirectional permeability of the compounds of the invention through Caco-2 cell monolayers. Caco-2 cells were grown in confluent monolayers where the media of both the apical (A) and basolateral (B) sides were at pH 7.4. Compounds were dosed at 1 μM in the presence of 200 μM Lucifer Yellow, on the apical side (A→B) or the basolateral side (B→A) for assessment, in duplicate.
(§3) The absorption potential of compounds were classified as either Low (P-app <1×10^−6 cm/s) or High (P-app >1×10^−6 cm/s).

[4] = system: Caco-2 cell monolayers; assay: Caco-2 Permeability Assay (bidirectional); type: in vitro ADME
From the text: as §1, §2, §3

[5] = Solubility (18 hr vortex mixing at room temperature, filtration, HPLC); type: physicochemical; conditions: thermodynamic from solid
Protocol: Ca. 1 mg portions of test article were combined with 120 μL solvent in wells of a 96×2 mL polypropylene plate. […] The contents of all wells were then filtered through a 0.45 μm GHP filter plate to yield clear filtrates. 5 μL of each filtrate was diluted into 100 μL DMF and vortex mixed to yield HPLC samples. Duplicate quantitation standards for each test article were prepared by diluting weighed portions of solid test article in measured volumes of DMF. 2 μL of each HPLC sample and quantitation standard were analyzed by HPLC using the method outlined in Table 5. Dissolved test article concentrations were calculated by peak area ratio against the appropriate quantitation standards.

[6] = read-out: Cell prolif P493 72h IC50, P493-6 cells, 72 h

**Q.** With `O=C(Nc1nnc(CCCCc2nnc(NC(=O)C3COc4ccccc43)s2)s1)C1COc2ccccc21` (stereo not shown) [Compound 135] as the molecule, how does the IC50 [1, 6] read?
**A.** 0.49 µM

**Q.** For `CC(C)(C)OC(=O)Nc1ccc(CC(=O)Cc2nnc(CCCCc3nnc(NC(=O)Cc4ccc(NC(=O)OC(C)(C)C)cc4)s3)s2)cc1` [Compound 192], which IC50 ([1]; P493-6, 72 h, read-out: Cell prolif P493 72h IC50, P493-6 cells, 72 h) is on record?
**A.** 0.03 µM

**Q.** And the IC50 [2]?
**A.** > 20 µM

**Q.** With `O=C(Cc1cccc(CN2CCNCC2)c1)Nc1nnc(CCCCc2nnc(NC(=O)Cc3cccc(CN4CCNCC4)c3)s2)s1` [Compound 276] as the molecule, how does the IC50 [1, 6] read?
**A.** 56 µM

**Q.** Which recovery at 120 min, 1 μM ([3]; Caco-2, pH 7.4, Direction A→B, 1 μM, 120 minutes, pH 7.4) does the source give for `O=C(Cc1ccccc1)Nc1ccc(CCCCc2nnc(NC(=O)Cc3ccccc3)s2)nn1` [Compound 295] here?
**A.** 89%

**Q.** What about the recovery at 120 min, 1 μM ([3]; Caco-2, pH 7.4, Direction B→A, 1 μM, 120 minutes, pH 7.4) of the same molecule?
**A.** 96%

**Q.** What about the efflux ratio at 120 min, 1 µM ([3]; Caco-2, (Papp B→A)/(Papp A→B)) of the same molecule?
**A.** 7.3

**Q.** What about the Papp A→B at 120 min, 1 μM ([3]; Caco-2, Direction A→B, 1 μM, 120 minutes, pH 7.4, unit not given (thresholds in 10^−6 cm/s)) of the same molecule?
**A.** 8.17 ×10⁻⁶ cm/s

**Q.** And the Papp B→A at 120 min, 1 μM ([3]; Caco-2, Direction B→A, 1 μM, 120 minutes, pH 7.4, unit not given (thresholds in 10^−6 cm/s))?
**A.** 59.8 ×10⁻⁶ cm/s

**Q.** And the permeability class (Low/High absorption potential) at 120 min, 1 µM ([3]; Caco-2, absorption potential, read-out: Permeability Classification)?
**A.** > 1 ×10⁻⁶ cm/s

**Q.** What about the “Significant Efflux” value [4] of the same molecule?
**A.** Yes (efflux ratios being significant when greater than or equal to 3 when the Papp (B→A) was greater than or equal to 1×10^−6 cm/s)

**Q.** What about the solubility at 18 h ([5]; 50 mM citrate buffer pH 2.3, 20 °C, aqueous buffer, 50 mM Cit pH 2.3, room temperature) of the same molecule?
**A.** < 2 µg/mL

**Q.** What about the solubility at 18 h ([5]; 50 mM citrate buffer pH 3.3, 20 °C, aqueous buffer, 50 mM Cit pH 3.3, room temperature) of the same molecule?
**A.** < 2 µg/mL

**Q.** What about the solubility at 18 h ([5]; 50 mM citrate buffer pH 4.4, 20 °C, aqueous buffer, 50 mM Cit pH 4.4, room temperature) of the same molecule?
**A.** < 2 µg/mL

**Q.** And the solubility at 18 h ([5]; 50 mM citrate buffer pH 5.4, 20 °C, aqueous buffer, 50 mM Cit pH 5.4, room temperature)?
**A.** < 2 µg/mL

**Q.** And the solubility at 18 h ([5]; 20 °C, aqueous buffer, PBS, room temperature)?
**A.** < 2 µg/mL

**Q.** What about the solubility at 18 h ([5]; 20 °C, aqueous with cosolvent or surfactant or cyclodextrin, 10% CrEL/50 mM cit, room temperature) of the same molecule?
**A.** 55 µg/mL (≈ 113 µM)

**Q.** What about the solubility at 18 h ([5]; 20 °C, aqueous with cosolvent or surfactant or cyclodextrin, 10% PS80/50 mM cit, room temperature) of the same molecule?
**A.** 27 µg/mL (≈ 55.5 µM)

**Q.** What about the solubility at 18 h ([5]; 20 °C, aqueous with cosolvent or surfactant or cyclodextrin, 20% HPBCD/50 mM cit, room temperature) of the same molecule?
**A.** 167 µg/mL (≈ 343 µM)

**Q.** And the solubility at 18 h ([5]; 20 °C, aqueous with cosolvent or surfactant or cyclodextrin, 20% SBECD/50 mM cit, room temperature)?
**A.** 90 µg/mL (≈ 185 µM)

**Q.** What about the solubility at 18 h ([5]; 20 °C, oil or lipid, Capryol 90, room temperature) of the same molecule?
**A.** 215 µg/mL (≈ 442 µM)

**Q.** What about the solubility at 18 h ([5]; 20 °C, oil or lipid, Capryol PGMC, room temperature) of the same molecule?
**A.** 1540 µg/mL (≈ 3160 µM)

**Q.** What about the solubility at 18 h ([5]; 20 °C, oil or lipid, Labrasol, room temperature) of the same molecule?
**A.** 918 µg/mL (≈ 1890 µM)

**Q.** And the solubility at 18 h ([5]; 20 °C, oil or lipid, canola oil, room temperature)?
**A.** < 2 µg/mL

**Q.** And the solubility at 18 h ([5]; 20 °C, organic solvent or mixture, EtOH, room temperature)?
**A.** 83 µg/mL (≈ 171 µM)

**Q.** What about the solubility at 18 h ([5]; 20 °C, organic solvent or mixture, PEG400, room temperature) of the same molecule?
**A.** 1640 µg/mL (≈ 3380 µM)

**Q.** And the solubility at 18 h ([5]; 20 °C, organic solvent or mixture, PG, room temperature)?
**A.** 234 µg/mL (≈ 481 µM)

**Q.** And the solubility at 18 h ([5]; 20 °C, pH 1, simulated gastric fluid, 0.1M HCl, room temperature)?
**A.** 3 µg/mL (≈ 6.17 µM)

**Q.** What about the solubility at 18 h ([5]; 20 °C, pH 13, aqueous buffer, 0.1M NaOH, room temperature) of the same molecule?
**A.** 268 µg/mL (≈ 551 µM)

**Q.** What about the solubility at 18 h ([5]; 20 °C, saline or isotonic, 0.9% NaCl, room temperature) of the same molecule?
**A.** < 2 µg/mL

**Q.** What about the solubility at 18 h ([5]; water, room temperature (ca. 20 C)) of the same molecule?
**A.** < 2 µg/mL
